Measurements from patent publication US20200115357A1, “LIVER X RECEPTORS (LXR) MODULATORS” (Phenex-FXR GmbH, priority 2017, published 2020).
pEC50: −log10 of the molar value.

Legend:
[1] = target: T1, GST-LXRβ ligand-binding domain (Homo sapiens, UniProt P55055, DUP175-175); experiment: TR-FRETβ activity assay (LXRβ-LBD / NCoA3 coactivator peptide, prestimulated with 24(S)-25-epoxycholesterol); format: biochemical; set-up: key to behavior in FRET assay: ag=agonist; ia=inverse agonist; conditions: for pEC50: read-out: FRETβ activity range (EC50); for behavior in FRET assay: agonist or inverse agonist
T1 construct: amino acids 156-461; NP009052; made in house; host or cells: E. coli
T1 sequence (P55055 with tags, fused parts or gaps DUP175-175): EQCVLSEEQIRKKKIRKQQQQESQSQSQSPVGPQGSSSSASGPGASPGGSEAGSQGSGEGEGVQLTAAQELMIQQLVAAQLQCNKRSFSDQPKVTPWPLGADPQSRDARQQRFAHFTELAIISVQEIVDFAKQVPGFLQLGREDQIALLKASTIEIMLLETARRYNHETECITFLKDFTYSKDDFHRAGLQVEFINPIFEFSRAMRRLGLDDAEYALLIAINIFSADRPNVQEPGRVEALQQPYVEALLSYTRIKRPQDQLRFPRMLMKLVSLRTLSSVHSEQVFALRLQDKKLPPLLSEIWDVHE
Protocol: The tested compounds were usually dissolved, tested and stored as 20 mM stock solutions in DMSO. […] Sulfonyl acetic acid derivatives are shelf stable as solid at rt for long time as reported by Griesbrecht et al. (Synlett 2010:374) or Faucher et al. (J. Med. Chem. 2004; 47:18). TR-FRETβ Activity Assay Recombinant GST-LXRβ ligand-binding domain (LBD; amino acids 156-461; NP009052; SEQ ID NO:2) was expressed in E. coli and purified via gluthatione-sepharose affinity chromatography. N-terminally biotinylated NCoA3 coactivator peptide (SEQ ID NO:1) was chemically synthesized (Eurogentec). […] Finally, a detection mix was added containing anti GST-Tb cryptate (CisBio; 610SAXLB) and Streptavidin-XL665 (CisBio; 610SAXLB) as fluorescent donor and acceptor, respectively, as well as the coactivator peptide and LXRβ-LBD protein (SEQ ID NO:2). The reaction was mixed thoroughly, equilibrated for 1 h at 4° C. and vicinity of LXRβ and coactivator peptide was detected by measurement of fluorescence in a VictorX4 multiplate reader (PerkinElmer Life Science) using 340 nm as excitation and 615 and 665 nm as emission wavelengths. Assays were performed in triplicates. Final Assay Concentrations of Components: 240 mM KCl, 1 μg/μL BSA, 0.002% Triton-X-100, […] anti GST-Tb cryptate, 2.5 ng/μL Streptavidin-XL665, coactivator peptide (400 nM), LXRβ protein ([…], i.e. 76 nM)

LXRα full length (FL) = target: T2, LXRα full length (FL) (Homo sapiens, UniProt Q13133); experiment: LXR Gal4 reporter transient transfection assay (M2H), Gal4α FL; format: cell-based; conditions: HEK293 cells; for pEC50: read-out: M2H Gal4α FL activity range (EC50)
T2 construct: the full length (FL) proteins of LXRα (amino acids 1-447); NP005684; expressed in transfected cells; host or cells: HEK293
T2 sequence (Q13133 1-447): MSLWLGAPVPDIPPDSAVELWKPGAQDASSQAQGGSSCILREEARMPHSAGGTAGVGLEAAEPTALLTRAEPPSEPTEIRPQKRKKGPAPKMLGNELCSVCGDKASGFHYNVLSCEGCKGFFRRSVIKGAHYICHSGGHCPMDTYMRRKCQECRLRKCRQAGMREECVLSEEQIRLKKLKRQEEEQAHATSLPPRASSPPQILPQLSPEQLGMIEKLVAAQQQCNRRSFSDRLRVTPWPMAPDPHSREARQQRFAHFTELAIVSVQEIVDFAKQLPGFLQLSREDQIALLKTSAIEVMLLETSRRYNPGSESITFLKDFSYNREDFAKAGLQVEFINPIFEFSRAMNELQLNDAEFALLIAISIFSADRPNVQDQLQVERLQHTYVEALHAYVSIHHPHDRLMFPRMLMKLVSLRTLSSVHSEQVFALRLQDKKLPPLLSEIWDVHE
Protocol: (§1) The tested compounds were usually dissolved, tested and stored as 20 mM stock solutions in DMSO. Since sulfonyl acetic acid derivatives tend to decarboxylate under these conditions, these stock solutions were prepared, tested and stored as 20 mM DMSO stock solutions containing 100 mM trifluoroacetic acid (5 equivalents). Sulfonyl acetic acid derivatives are shelf stable as solid at rt for long time as reported by Griesbrecht et al. (Synlett 2010:374) or Faucher et al. (J. Med. Chem. 2004; 47:18).
(§2) LXR Gal4 Reporter Transient Transfection Assays
(§3) LXRα and LXRβ activity status was determined via detection of interaction with coactivator and corepressor proteins in mammalian two-hybrid experiments (M2H). For this, via transient transfection the full length (FL) proteins of LXRα (amino acids 1-447; NP005684; SEQ ID NO:7) or LXRβ-(amino acids 1-461; NP009052; SEQ ID NO:8) or the ligand-binding domains (LBD) of LXRα (amino acids 155-447 SEQ ID NO:3) or LXRβ (amino acids 156-461; SEQ ID NO:4) were expressed from pCMV-AD (Stratagene) as fusions to the transcriptional activation domain of NFkB. As cofactors, domains of either the steroid receptor coactivator 1 (SRC1; amino acids 552-887; SEQ ID NO:5) or of the corepressor NCoR (amino acids 1903-2312 SEQ ID NO:6) were expressed as fusions to the DNA binding domain of the yeast transcription factor GAL4 (from pCMV-BD; Stratagene). Interaction was monitored via activation of a coexpressed Firefly Luciferase Reporter gene under control of a promoter containing repetitive GAL4 response elements (vector pFRLuc; Stratagene). Transfection efficiency was controlled via cotransfection of constitutively active pRL-CMV Renilla reniformis luciferase reporter (Promega). HEK293 cells were grown in minimum essential medium (MEM) with 2 mM L-glutamine and Earle's balanced salt solution supplemented with 8.3% fetal bovine serum, 0.1 mM non-essential amino acids, 1 mM sodium pyruvate, at 37° C. in 5% CO2. 3.5×10^4 cells/well were plated in 96-well cell culture plates in growth medium supplemented with 8.3% fetal bovine serum for 16-20 h to ˜90% confluency. For transfection, medium was taken off and LXR and cofactor expressing plasmids as well as the reporter plasmids are added in 30 μL OPTIMEM/well including polyethylene-imine (PEI) as vehicle. Typical amounts of plasmids transfected/well: pCMV-AD-LXR (5 ng), pCMV-BD-cofactor (5 ng), pFR-Luc (100 ng), pRL-CMV (0.5 ng). Compound stocks were prepared in DMSO, prediluted in MEM to a total volume of 120 μL, and added 4 h after addition of the transfection mixture (final vehicle concentration not exceeding 0.2%). Cells were incubated for additional 16 h, lysed for 10 min in 1× Passive Lysis Buffer (Promega) and Firefly and Renilla luciferase activities were measured sequentially in the same cell extract using buffers containing D-luciferine and coelenterazine, respectively. Measurements of luminescence were done in a BMG-Iuminometer.

LXRβ full length (FL) = target: T3, LXRβ full length (FL) (Homo sapiens, UniProt P55055, DUP175-175); experiment: LXR Gal4 reporter transient transfection assay (M2H), Gal4β FL; format: cell-based; conditions: HEK293 cells; read-out: M2H Gal4β FL activity range (EC50)
T3 construct: the full length (FL) proteins of LXRα (amino acids 1-447); NP005684; NP009052; expressed in transfected cells; host or cells: HEK293
T3 sequence (P55055 with tags, fused parts or gaps DUP175-175): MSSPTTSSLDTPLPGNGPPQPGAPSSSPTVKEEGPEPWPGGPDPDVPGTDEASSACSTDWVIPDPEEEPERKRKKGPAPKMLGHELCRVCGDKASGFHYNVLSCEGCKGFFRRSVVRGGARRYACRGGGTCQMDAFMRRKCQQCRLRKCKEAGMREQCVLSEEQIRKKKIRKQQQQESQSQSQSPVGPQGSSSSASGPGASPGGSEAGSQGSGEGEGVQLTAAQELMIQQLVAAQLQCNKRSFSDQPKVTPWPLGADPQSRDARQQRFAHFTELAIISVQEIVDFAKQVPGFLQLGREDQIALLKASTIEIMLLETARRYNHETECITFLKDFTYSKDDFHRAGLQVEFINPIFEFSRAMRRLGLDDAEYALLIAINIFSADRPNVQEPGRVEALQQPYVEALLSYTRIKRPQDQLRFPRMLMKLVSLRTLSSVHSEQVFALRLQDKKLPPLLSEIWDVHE
Protocol: as §1, §2, §3

[2] = 1 μM 24(S)-25-epoxycholesterol as prestimulating agonist

| pEC50 [1, 2] | behavior in FRET assay [1] | pEC50 (LXRα full length (FL)) | pEC50 (LXRβ full length (FL)) | FRETβ activity range (EC50) [1, 2] | M2H Gal4α FL activity range (EC50) (LXRα full length (FL)) | SMILES |
| --- | --- | --- | --- | --- | --- | --- |
| < 5.00 | ia | 5.00 to 6.00 | 6.00 to 7.00 |  |  | Cc1cc(C)c(S(=O)(=O)N(Cc2ccc(-c3cccc(S(=O)(=O)CC(=O)O)c3)cc2)Cc2ccc(F)c(C)c2)c(C)c1 [11/5] |
| 6.00 to 7.00 | ag | 6.00 to 7.00 | > 7.00 |  |  | Cc1cc(C)c(S(=O)(=O)N(Cc2ccc(-c3cccc(S(=O)(=O)CC(=O)O)c3)cc2)Cc2c(F)cccc2Cl)c(C)c1 [11/6] |
| 5.00 to 6.00 | ia | 5.00 to 6.00 | 5.00 to 6.00 |  |  | Cc1cc(C)c(S(=O)(=O)N(Cc2ccc(-c3cccc(S(=O)(=O)CC(=O)O)c3)cc2)Cc2cncc(C(F)(F)F)c2)c(C)c1 [11/9] |
| 5.00 to 6.00 | ia | 5.00 to 6.00 | 5.00 to 6.00 |  |  | Cc1cc(C)c(S(=O)(=O)N(Cc2ccc(-c3cccc(S(=O)(=O)CC(=O)O)c3)cc2)Cc2csc(C(F)(F)F)c2)c(C)c1 [11/10] |
| 6.00 to 7.00 | ag | 5.00 to 6.00 | 6.00 to 7.00 |  |  | Cc1cc(C)c(S(=O)(=O)N(Cc2ccc(-c3cccc(S(=O)(=O)CC(=O)O)c3)cc2)Cc2ccc(F)cc2Cl)c(C)c1 [11/11] |
| 6.00 to 7.00 | ag | 6.00 to 7.00 | > 7.00 |  |  | Cc1cc(C)c(S(=O)(=O)N(Cc2ccc(-c3cccc(S(=O)(=O)CC(=O)O)c3)cc2)Cc2ccccc2C(F)(F)F)c(C)c1 [11/12] |
| 5.00 to 6.00 | ia | 5.00 to 6.00 | 6.00 to 7.00 |  |  | Cc1cc(C)c(S(=O)(=O)N(Cc2ccc(-c3cccc(S(=O)(=O)CC(=O)O)c3)cc2)Cc2cccc(OC(F)F)c2)c(C)c1 [11/15] |
|  |  | 5.00 to 6.00 | 6.00 to 7.00 | inactive |  | Cc1cc(C)c(S(=O)(=O)N(Cc2ccc(-c3cccc(S(=O)(=O)CC(=O)O)c3)cc2)Cc2cccc(Cl)c2)c(C)c1 [11/16] |
| 5.00 to 6.00 | ia | 5.00 to 6.00 | 6.00 to 7.00 |  |  | Cc1cccc(C)c1S(=O)(=O)N(Cc1ccc(-c2cccc(S(=O)(=O)CC(=O)O)c2)cc1)Cc1ccc(C(F)(F)F)o1 [14/2] |
| 6.00 to 7.00 | ia | > 7.00 | > 7.00 |  |  | Cc1ccc2ccccc2c1S(=O)(=O)N(Cc1ccc(-c2cccc(C(C)(C)C(=O)O)c2)cc1)C1CCc2ccc(C(F)(F)F)cc21 (stereo not drawn) [17/2] |
| > 7.00 | ia | > 7.00 | > 7.00 |  |  | Cc1cc(C(F)(F)F)oc1CN(Cc1ccc(-c2cccc(C(C)(C)C(=O)O)c2)cc1)S(=O)(=O)c1c(C)ccc2ccccc12 [17/3] |
| 5.00 to 6.00 | ia | 6.00 to 7.00 | 6.00 to 7.00 |  |  | Cc1cc(C)c(S(=O)(=O)N(Cc2ccc(-c3cccc(S(=O)(=O)C(C)C(=O)O)c3)cc2)Cc2ccc(C(F)(F)F)o2)c(C)c1 (stereo not drawn) [Example 5/1] |
| 5.00 to 6.00 | ia | 6.00 to 7.00 | 6.00 to 7.00 |  |  | Cc1ccc2ccccc2c1S(=O)(=O)N(Cc1ccc(-c2cccc(S(=O)(=O)CC(=O)O)c2)cc1)Cc1ccc(C#N)o1 [Example 5/7] |
| 5.00 to 6.00 | ia | 6.00 to 7.00 | 6.00 to 7.00 |  |  | Cc1cc(C)c(S(=O)(=O)N(Cc2ccc(-c3cc(F)c(CO)c(S(=O)(=O)CC(=O)O)c3)cc2)Cc2ccc(C(F)(F)F)o2)c(C)c1 [Example 9, 2-((5-Fluoro-4-(hydroxymethyl)-4′-(((2,4,6-trimethyl-N-((5-(trifluoromethyl)furan-2-yl)methyl)phenyl)sulfonamido)methyl)-[1,1′-biphenyl]-3-yl)sulfonyl)acetic acid] |
| 6.00 to 7.00 | ia | 6.00 to 7.00 | 6.00 to 7.00 |  |  | Cc1ccc2ccccc2c1S(=O)(=O)N(Cc1ccc(-c2cccc(S(=O)(=O)CC(=O)O)c2)cc1)Cc1ccc(C(F)(F)F)o1 [Example 10, 2-((4′-(((2-Methyl-N-((5-(trifluoromethyl)furan-2-yl)methyl)naphthalene)-1-sulfonamido)methyl)[1,1′-biphenyl]-3-yl)sulfonyl)acetic acid] |
| 5.00 to 6.00 | ag |  | 6.00 to 7.00 |  | inactive | O=C(O)CS(=O)(=O)c1cccc(-c2ccc(CN(Cc3ccc(C(F)(F)F)o3)S(=O)(=O)c3c(Cl)cccc3Cl)cc2)c1 [Example 10/1] |
